These results are taken from patent US9918948B2, “Methods and compositions for treating symptoms associated with post-traumatic stress disorder using cyclobenzaprine” (TONIX PHARMA HOLDINGS LIMITED, priority 2009, dated 2018).

For assay [1], the system named is PTSD symptoms. To be noted: 1 to 4 mg orally at bedtime, alone or with sertraline or prazosin; one to three months after the trauma. The source says:
(§1) At this point the usual natural history of the disease has progressed to the point where patients typically experience recurrent nightmares associated with their traumatic events. […] In addition patients at this stage in the evolution of their disorder have a constellation of daytime symptoms consisting of hyperarousal, hypervigilance, exaggerated startle, and other signs of overactive vigilance behaviors. Also, at this point patients begin to engage in avoidant behaviors such that they actively avoided people and circumstances that might trigger memories of the traumatic event. Lastly, patients begin to experience daytime reexperiencing of their traumatic events in the form of flashbacks. […] These include hyperarousal, hypervigilance, exaggerated startle, and avoidant behavior.

The subject of assay [2] is PTSD symptoms. To be noted: 1 to 4 mg orally at bedtime, alone or with sertraline or prazosin; PTSD present for greater than three months.
Excerpt: as §1, with “In patients with well-established PTSD that has been present for greater than three months. At” for “At”, “nightmares and daytime flashbacks” for “nightmares”, “with highly vivid memories of the” for “with their”, “traumatic event.” for “traumatic events.”

Assay [3] concerns PTSD symptoms. The conditions noted are these: 1 to 4 mg orally at bedtime, alone or with sertraline or prazosin, started within one week of the trauma.
The test system of assay [4] is fibromyalgia patients. The conditions noted are these: 120 fibromyalgia patients, 10 to 40 mg, 12-week period; cited from earlier work.
Assay [5] relates to sleep disturbance in PTSD. The conditions noted are these: administered at bedtime; cited from earlier work.

Read-outs that look alike come from different tables or passages of the source.

In the case of `CN(C)CCC=C1c2ccccc2C=Cc2ccccc21` [cyclobenzaprine, 3-(5H-dibenzo[a,d]cyclohepten-5-ylidene)-N,N-dimethyl-1-propanamine], in assay [1], the “daytime symptoms not associated with sleep (hyperarousal, hypervigilance, exaggerated startle, avoidant behavior)” value is given as “greatly reduced or eliminated” and the “sleep associated symptomatology (nightmares, distress, insomnia, daytime fatigue, cognitive function)” value was “significant improvements”. Also, in assay [2], the “daytime symptoms not associated with sleep (hyperarousal, hypervigilance, exaggerated startle, avoidant behavior)” value is recorded as “greatly reduced or eliminated” and the “sleep associated symptomatology (nightmares, distress, insomnia, daytime fatigue, cognitive function)” value was “significant improvements”. Besides, in assay [3], the “avoiding behavior or hyperarousal symptoms” value is on record as “No avoiding behavior or hyperarousal symptoms develop”, the “daytime fatigue compared to untreated patients” value is reported as “diminished” and the “sleep quality compared to untreated patients” value is given as “substantially better in quality”. Moreover, in assay [3] (three-month interval), the “frequency of nightmares or flashbacks” value is on record as “declines eventually approaching zero”. Further, in assay [4], the pain score entry is on record as “significantly improved”; the quality of sleep entry was “significantly improved”; the “total number of tender points and muscle tightness” value is “reduction”.

On to `COc1cc2nc(N3CCN(C(=O)c4ccco4)CC3)nc(N)c2cc1OC` [prazosin], for which the sleep entry in assay [5] is “improves sleep”.
